In ChEMBL document CHEMBL1201862, “PubChem BioAssay data set” (2004):
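Protocol summary: plate cells (96-well), add compound at 5 concentrations, incubate 48 h, interpolate endpoints linearly. At the GI50, growth is halved.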 Calls of active or inactive are those of the source. Rule as the data show it: active = GI50 up to about 1.1 µM and inactive = higher.

Experiments:
Test in all cases: NCI-60 cell line screen, 48 h
HOP-92 = tested on: HOP-92
UO-31 = tested on: UO-31
EKVX = tested on: EKVX
NCI-H460 = tested on: NCI-H460
LOX IMVI = tested on: LOX IMVI
SK-MEL-28 = tested on: SK-MEL-28
M14 = tested on: M14
KM12 = tested on: KM12
ACHN = tested on: ACHN
OVCAR-8 = tested on: OVCAR-8
NCI/ADR-RES = tested on: NCI/ADR-RES
UACC-257 = tested on: UACC-257
OVCAR-5 = tested on: OVCAR-5
HCT-15 = tested on: HCT-15
HOP-62 = tested on: HOP-62
MDA-N = tested on: MDA-N
SN12C = tested on: SN12C
SK-MEL-5 = tested on: SK-MEL-5
T47D = tested on: T47D
SF-268 = tested on: SF-268

| Compound | GI50 (HOP-92) | GI50 (UO-31) | GI50 (EKVX) | GI50 (NCI-H460) | GI50 (LOX IMVI) | GI50 (SK-MEL-28) | GI50 (M14) | GI50 (KM12) | GI50 (ACHN) | GI50 (OVCAR-8) | GI50 (NCI/ADR-RES) | GI50 (UACC-257) | GI50 (OVCAR-5) | GI50 (HCT-15) | GI50 (HOP-62) | GI50 (MDA-N) | GI50 (SN12C) | GI50 (SK-MEL-5) | GI50 (T47D) | GI50 (SF-268) |
| --- | --- | --- | --- | --- | --- | --- | --- | --- | --- | --- | --- | --- | --- | --- | --- | --- | --- | --- | --- | --- |
| O=C1c2cccnc2-c2nccc3ccnc1c23 | 687 nM (active) | 726 nM (active) | 1580 nM (inactive) | 58.3 nM (active) | 418 nM (active) | 1200 nM (inactive) | 1020 nM (active) | 1540 nM (inactive) | 158 nM (active) | 755 nM (active) | 294 nM (active) | 964 nM (active) | 2070 nM (inactive) | 366 nM | 3530 nM (inactive) | 200 nM (active) | 1040 nM (active) | 610 nM (active) | 622 nM (active) | 1110 nM (active) |
| Cc1c2cc[n+](C)cc2c(C)c2c1[nH]c1ccc(Cl)cc12 | 2960 nM (inactive) | 1510 nM (inactive) | 536 nM (active) | 4810 nM (inactive) | 4670 nM (inactive) | 2920 nM (inactive) | 5570 nM (inactive) | 897 nM (active) | 3780 nM (inactive) | 298 nM (active) | 2960 nM (inactive) | 8380 nM (inactive) | 8320 nM (inactive) | 5870 nM | 631 nM (active) | 7110 nM (inactive) | 214 nM (active) | 1090 nM (active) | 1090 nM (active) | 290 nM (active) |
| Cc1ccc2c(c1)CC1(C2)Cc2ccc(C)cc2C1=O (stereo not given) | 19500 nM (inactive) | 27500 nM (inactive) | 32200 nM (inactive) | 23300 nM (inactive) | 20100 nM (inactive) | 42000 nM (inactive) | 20200 nM (inactive) | 23500 nM (inactive) | 27700 nM (inactive) | 36500 nM (inactive) | 15900 nM (inactive) | 18900 nM (inactive) | 43900 nM (inactive) | 15600 nM | 28000 nM (inactive) | 7350 nM (inactive) | 24800 nM (inactive) | 13000 nM (inactive) | 59600 nM (inactive) | 32000 nM (inactive) |
